Experimental data from patent publication US8329645B2, “Polymyxin derivatives and uses thereof” (priority 2008, dated 2012).
Read-outs that look alike come from different tables or passages of the source. Where a SMILES comes first, the peptide text is derived from it. Bridges are numbered along the chain shown (N, C = ends). [ ]: non-standard residue; d: D form. The star is where a group is joined. Decanoyl = CCCCCCCCCC(=O)*; Octanoyl = CCCCCCCC(=O)*; Dab = NCC[C@H](N)C(=O)O; Abu = CC[C@H](N)C(=O)O

Key:
E. coli CCUG 41425 = tested on: E. coli CCUG 41425
Description: (§1) Polymyxin B sulfate (Sigma-Aldrich, St. Louis, Mo., USA) was used as a control. […] The bacterial test strains originated from ATCC (10 strains), CCUG (11 strains), and NCTC (3 strains). Fourteen (14) strains (the F-strains) were purchased from Mobidiag Ltd., Helsinki, Finland.
(§2) The inocula were prepared by adjusting the bacterial suspensions to a density equivalent to OD546 nm˜0.3 (˜10^8 CFU/ml˜0.5 McFarland) the yeast suspension to a density equivalent to OD546 nm˜0.75 (˜2×10^7 CFU/ml)._The suspensions were diluted to 10^7 CFU/ml. The plates were inoculated by using a Denley Multipoint Inoculator, 1 μl per spot corresponding to approx. 10^4 CFU/spot. Plates were incubated for 16-20 hours at 35° C.

E. cloacae ATCC 23355 = tested on: E. cloacae ATCC 23355
Description: as §1, §2

E. coli IH3080 = tested on: E. coli IH3080
Description: as §1, §2

K. pneumoniae F145 = tested on: K. pneumoniae F145
Description: as §1, §2

E. coli CCUG 41427 = tested on: E. coli CCUG 41427
Description: as §1, §2

E. coli F10 = tested on: E. coli F10
Description: as §1, §2

P. aeruginosa ATCC 27853 = tested on: P. aeruginosa ATCC 27853
Description: as §1, §2

E. cloacae F231 = tested on: E. cloacae F231
Description: as §1, §2

C. albicans ATCC 28366 = tested on: C. albicans ATCC 28366
Description: as §1, §2

E. cloacae F230 = tested on: E. cloacae F230
Description: as §1, §2

S. aureus ATCC 25923 = tested on: S. aureus ATCC 25923
Description: as §1, §2

K. oxytoca ATCC 13182 = tested on: K. oxytoca ATCC 13182
Description: as §1, §2

K. pneumoniae F136 = tested on: K. pneumoniae F136
Description: as §1, §2

K. pneumoniae ATCC 13883 = tested on: K. pneumoniae ATCC 13883
Description: as §1, §2

E. coli F19 = tested on: E. coli F19
Description: as §1, §2

E. coli F8 = tested on: E. coli F8
Description: as §1, §2

A. baumannii F264 = tested on: A. baumannii F264
Description: as §1, §2

K. pneumoniae CCUG 45421 = tested on: K. pneumoniae CCUG 45421
Description: as §1, §2

K. oxytoca CCUG 51683 = tested on: K. oxytoca CCUG 51683
Description: as §1, §2

S. marcescens ATCC 8100 = tested on: S. marcescens ATCC 8100
Description: as §1, §2

E. coli NCTC 13353 = tested on: E. coli NCTC 13353
Description: as §1, §2

P. aeruginosa F58 = tested on: P. aeruginosa F58
Description: as §1, §2

E. coli CCUG 41429 = tested on: E. coli CCUG 41429
Description: as §1, §2

E. coli CCUG 41432 = tested on: E. coli CCUG 41432
Description: as §1, §2

A. baumannii ATCC 19606 = tested on: A. baumannii ATCC 19606
Description: as §1, §2

E. cloacae F232 = tested on: E. cloacae F232
Description: as §1, §2

[1] = tested on: S. maltophilia ATCC 17444
Description: as §1, §2

P. aeruginosa CCUG 51971 = tested on: P. aeruginosa CCUG 51971
Description: as §1, §2

E. coli CCUG 41422 = tested on: E. coli CCUG 41422
Description: as §1, §2

[2] = tested on: Acinetobacter baumannii ATCC 19606; assay: Growth inhibition around wells on LB agar plates; type: cell-based; conditions: A. baumannii ATCC 19606

Polymyxin B [reference compound]
>32 µg/mL: MIC (C. albicans ATCC 28366; C. albicans ATCC 28366) | MIC (S. aureus ATCC 25923; S. aureus ATCC 25923) | MIC (S. marcescens ATCC 8100; S. marcescens ATCC8100)
32(−8) μg/ml: MIC (K. pneumoniae ATCC 13883; K. pneumoniae ATCC13883)
0.5 µg/mL: MIC (E. coli CCUG 41425; E. coli CCUG41425) | MIC (E. cloacae ATCC 23355; E. cloacae ATCC23355) | MIC (E. coli IH3080; E. coli IH3080) | MIC (K. pneumoniae F145; K. pneumoniae F145) | MIC (E. coli F10; E. coli F10) | MIC (E. cloacae F231; E. cloacae F231) | MIC (E. cloacae F230; E. cloacae F230) | MIC (K. oxytoca ATCC 13182; K. oxytoca ATCC13182) | MIC (K. pneumoniae F136; K. pneumoniae F136) | MIC (A. baumannii F264; A. baumannii F264) | MIC (K. oxytoca CCUG 51683; K. oxytoca CCUG51683) | MIC (P. aeruginosa F58; P. aeruginosa F58) | MIC (E. cloacae F232; E. cloacae F232)
1 µg/mL: MIC (E. coli CCUG 41427; E. coli CCUG41427) | MIC (P. aeruginosa ATCC 27853; P. aeruginosa ATCC27853) | MIC (E. coli F19; E. coli F19) | MIC (E. coli F8; E. coli F8) | MIC (K. pneumoniae CCUG 45421; K. pneumoniae CCUG45421) | MIC (E. coli NCTC 13353; E. coli NCTC13353) | MIC (E. coli CCUG 41429; E. coli CCUG41429) | MIC (E. coli CCUG 41432; E. coli CCUG41432) | MIC (A. baumannii ATCC 19606; A. baumannii ATCC 19606) | MIC ([1]; S. maltophilia ATCC17444)

CCCCCCCCCC(=O)N[C@H](C(=O)N[C@H](CO)C(=O)N[C@H]1CCNC(=O)[C@H]([C@@H](C)O)NC(=O)[C@H](CCN)NC(=O)[C@H](CCN)NC(=O)[C@H](CC(C)C)NC(=O)[C@@H](Cc2ccccc2)NC(=O)[C@H](CCN)NC1=O)[C@@H](C)O [NAB 740, DA-Thr-DSer-cy[Dab-Dab-DPhe-Leu-Dab-Dab-Thr-]] (Decanoyl-T[dS][Dab][Dab][dF]L[Dab][Dab]T; lactam 3-C)
201 square millimeters: growth inhibition around a well ([2]; 10 μg)
4 µg/mL: MIC (P. aeruginosa ATCC 27853; ATCC 27853) | MIC (K. pneumoniae CCUG 45421; CCUG 45421) | MIC (P. aeruginosa F58; F58) | MIC (A. baumannii ATCC 19606; ATCC 19606)
8 µg/mL: MIC (P. aeruginosa CCUG 51971) | MIC (K. pneumoniae ATCC 13883; ATCC 13883) | MIC ([1]; ATCC 17444)
133 square millimeters: growth inhibition around a well ([2]; 4 μg)
2 µg/mL: MIC (E. coli CCUG 41425; CCUG 41425) | MIC (E. cloacae ATCC 23355; ATCC 23355) | MIC (E. coli IH3080; IH3080) | MIC (K. pneumoniae F145; F145) | MIC (E. coli F10; F10) | MIC (E. cloacae F231; F231) | MIC (E. cloacae F230; F230) | MIC (K. oxytoca ATCC 13182; ATCC 13182) | MIC (K. pneumoniae F136; F136) | MIC (E. coli F8; F8) | MIC (A. baumannii F264; F264) | MIC (K. oxytoca CCUG 51683; CCUG 51683) | MIC (E. coli NCTC 13353; NCTC 13353) | MIC (E. coli CCUG 41422) | MIC (E. coli CCUG 41432; CCUG 41432) | MIC (E. cloacae F232; F232)
>32 µg/mL: MIC (C. albicans ATCC 28366; ATCC 28366) | MIC (S. aureus ATCC 25923; ATCC 25923) | MIC (S. marcescens ATCC 8100; ATCC 8100)
1 µg/mL: MIC (E. coli CCUG 41427; CCUG 41427) | MIC (E. coli F19; F19) | MIC (E. coli CCUG 41429; CCUG 41429)

CCCCCCCC(=O)N[C@H](C(=O)N[C@H](CO)C(=O)N[C@H]1CCNC(=O)[C@H]([C@@H](C)O)NC(=O)[C@H](CCN)NC(=O)[C@H](CCN)NC(=O)[C@H](CC(C)C)NC(=O)[C@@H](Cc2ccccc2)NC(=O)[C@H](CCN)NC1=O)[C@@H](C)O [NAB 739, OA-Thr-DSer-cy[Dab-Dab-DPhe-Leu-Dab-Dab-Thr-]] (Octanoyl-T[dS][Dab][Dab][dF]L[Dab][Dab]T; lactam 3-C)
2 µg/mL: MIC (E. cloacae ATCC 23355; ATCC 23355) | MIC (K. pneumoniae F145; F145) | MIC (E. cloacae F231; F231) | MIC (E. cloacae F230; F230) | MIC (K. oxytoca ATCC 13182; ATCC 13182) | MIC (K. oxytoca CCUG 51683; CCUG 51683) | MIC (E. cloacae F232; F232)
0.5 µg/mL: MIC (E. coli F19; F19)
16 µg/mL: MIC ([1]; ATCC 17444)
113 square millimeters: growth inhibition around a well ([2]; 4 μg)
8 µg/mL: MIC (P. aeruginosa CCUG 51971) | MIC (P. aeruginosa ATCC 27853; ATCC 27853) | MIC (P. aeruginosa F58; F58) | MIC (A. baumannii ATCC 19606; ATCC 19606)
1 µg/mL: MIC (E. coli CCUG 41425; CCUG 41425) | MIC (E. coli IH3080; IH3080) | MIC (E. coli CCUG 41427; CCUG 41427) | MIC (E. coli F10; F10) | MIC (K. pneumoniae F136; F136) | MIC (E. coli F8; F8) | MIC (E. coli NCTC 13353; NCTC 13353) | MIC (E. coli CCUG 41422) | MIC (E. coli CCUG 41429; CCUG 41429) | MIC (E. coli CCUG 41432; CCUG 41432)
>32 µg/mL: MIC (C. albicans ATCC 28366; ATCC 28366) | MIC (S. aureus ATCC 25923; ATCC 25923) | MIC (S. marcescens ATCC 8100; ATCC 8100)
177 square millimeters: growth inhibition around a well ([2]; 10 μg)
4 µg/mL: MIC (A. baumannii F264; F264)

CCCCCCCC(=O)N[C@H](C(=O)N[C@@H](CC)C(=O)N[C@H]1CCNC(=O)[C@H]([C@@H](C)O)NC(=O)[C@H](CCN)NC(=O)[C@H](CCN)NC(=O)[C@H](CC(C)C)NC(=O)[C@@H](Cc2ccccc2)NC(=O)[C@H](CCN)NC1=O)[C@@H](C)O [NAB 7061, OA-Thr-Abu-cy[Dab-Dab-DPhe-Leu-Dab-Dab-Thr-]] (Octanoyl-T[Abu][Dab][Dab][dF]L[Dab][Dab]T; lactam 3-C)
0 square millimeters: growth inhibition around a well ([2]; 4 μg) | growth inhibition around a well ([2]; 10 μg)
32 µg/mL: MIC (E. cloacae ATCC 23355; ATCC 23355) | MIC (E. cloacae F231; F231) | MIC (K. oxytoca ATCC 13182; ATCC 13182) | MIC (E. coli F19; F19) | MIC (K. oxytoca CCUG 51683; CCUG 51683)
16 µg/mL: MIC (E. coli CCUG 41429; CCUG 41429)
>32 µg/mL: MIC (E. coli CCUG 41425; CCUG 41425) | MIC (P. aeruginosa CCUG 51971) | MIC (E. coli IH3080; IH3080) | MIC (K. pneumoniae F145; F145) | MIC (E. coli CCUG 41427; CCUG 41427) | MIC (E. coli F10; F10) | MIC (P. aeruginosa ATCC 27853; ATCC 27853) | MIC (C. albicans ATCC 28366; ATCC 28366) | MIC (E. cloacae F230; F230) | MIC (S. aureus ATCC 25923; ATCC 25923) | MIC (K. pneumoniae F136; F136) | MIC (K. pneumoniae ATCC 13883; ATCC 13883) | MIC (E. coli F8; F8) | MIC (A. baumannii F264; F264) | MIC (K. pneumoniae CCUG 45421; CCUG 45421) | MIC (S. marcescens ATCC 8100; ATCC 8100) | MIC (E. coli NCTC 13353; NCTC 13353) | MIC (E. coli CCUG 41422) | MIC (P. aeruginosa F58; F58) | MIC (E. coli CCUG 41432; CCUG 41432) | MIC (A. baumannii ATCC 19606; ATCC 19606) | MIC (E. cloacae F232; F232) | MIC ([1]; ATCC 17444)
